Data as given in patent publication US4314028A, “Fermentation process for producing tallysomycin compounds” (priority 1980, dated 1982).

How the values were obtained:
[1] = test system: Mycobacterium smegmatis strain M6-3; test: Relative antibacterial potency, paper-disc agar diffusion method; assay type: cell-based; conditions: relative to tallysomycin A standard=1000 mcg/mg
Experimental: The relative antibacterial potencies (tallysomycin A standard=1000 mcg/mg) of the tallysomycin derivatives were determined by the paper-disc agar diffusion method using Mycobacterium smegmatis strain M6-3 as the assay organism.

[2] = test system: lysogenic bacterium E. coli W1709 (λ); test: Prophage induction of lysogenic bacterium (ILB activity); assay type: cell-based; conditions: t/c ratio of plaque counts greater than 3.0
Experimental: The activity of prophage induction of lysogenic bacterium E. coli W1709 (λ) was determined according to the method disclosed by Lein et al. in Nature 196: 783-784 (1962). The plaque count was made on the agar plate containing test compound (t) and control plate (c). A t/c ratio of the plaque counts of greater than 3.0 was defined to be a significant level and lysogenic induction activity (ILB activity) was expressed by the minimum inducible concentration of the test compound.

Mycobacterium 607 = test: MIC, two-fold agar dilution method; assay type: cell-based; conditions: nutrient agar
Experimental: (§1) The minimum inhibitory concentrations (MIC) of the semibiosynthetic tallysomycin derivatives of the present invention were determined against fungi and gram-positive, gram-negative and acid-fast bacteria by the two-fold agar dilution method. Nutrient agar was used for bacteria and Sabouraud agar for fungi. The results are shown in the table below comparatively with tallysomycin A and B.

Sarcina lutea PCI1001 = test: MIC, two-fold agar dilution method; assay type: cell-based; conditions: nutrient agar
Experimental: as §1

[3] = test system: Candida albicans IAM 4888; test: MIC, two-fold agar dilution method; assay type: cell-based; conditions: Sabouraud agar
Experimental: as §1

[4] = test system: Bacillus subtilis PCI 219; test: MIC, two-fold agar dilution method; assay type: cell-based; conditions: nutrient agar
Experimental: as §1

Escherichia coli NIHJ = test: MIC, two-fold agar dilution method; assay type: cell-based; conditions: nutrient agar
Experimental: as §1

[5] = test system: Staphylococcus aureus Smith; test: MIC, two-fold agar dilution method; assay type: cell-based; conditions: nutrient agar
Experimental: as §1

Proteus mirabilis A9554 = test: MIC, two-fold agar dilution method; assay type: cell-based; conditions: nutrient agar
Experimental: as §1

[6] = test system: Aspergillus fumigatus IAM 2593; test: MIC, two-fold agar dilution method; assay type: cell-based; conditions: Sabouraud agar
Experimental: as §1

[7] = test system: Lymphocytic leukemia P388; test: animal or person; assay type: in vivo, BDF1 mice; conditions: copper-chelated form unless otherwise stated; for Antitumor activity P388 (ED125): ip, once daily 9 days, dose giving T/C survival of 125%; for Antitumor therapeutic index P388: single dose LD50/ED125
From the text: (§2) The antitumor activity of the tallysomycin derivatives was examined in four experimental tumor systems in mice. Lymphocytic leukemia P388 and Lewis lung carcinoma were implanted intraperitoneally into BDF1 mice of either sex at an inoculum size of 3×10^5 and 5×10^5 cells per mouse, respectively. Sarcoma 180 ascites tumor was inoculated intraperitoneally into male dd-strain mice with […] per mouse. Melanotic melanoma B16 was implanted subcutaneously into BDF1 mice with 5×10^5 cells per mouse. Twenty-four hours after the implantation of tumor cells, graded doses of test compounds were administered to mice intraperitoneally in an injection volume of 0.2 ml. per 10 grams of body weight. Test compounds were given once daily for 9 days (qd 1→9 schedule) except for the mice inoculated with Lewis lung carcinoma which were treated for 11 days (qd 1→11). Death or survival of the treated and non-treated (control) animals was recorded daily during the observation period of 45 days after the implantation of tumor cells, and the median survival time was calculated for each of the test (T) and control (C) groups. […] The actual dose giving a T/C of 125% was estimated by linear regression analysis and defined as the effective dose 125 or ED125. The effective dose 150 (ED150) was employed for the evaluation of antitumor effect against Sarcoma 180. In the B16 melanoma experiment the tumor size was measured on day 16 after tumor inoculation, and the dose giving 50% inhibition of tumor growth (ID50) was calculated from regression lines.
(§3) The antitumor therapeutic index was calculated for each derivative from the ratio of toxicity and antitumor activity.

[8] = Acute toxicity, single dose LD50; assay type: in vivo, dd mice; conditions: ip, 30 days observation, copper-chelated form unless otherwise stated
Experimental: Graded doses of test compounds were administered intraperitoneally to groups of dd mice. The injection was given one time only or once daily for 9 consecutive days. Death or survival of the animals was recorded for 30 days after the last dose of test compound to calculate the single or multiple median lethal dose (LD50).

Sarcoma 180 = test: animal or person; assay type: in vivo, dd-strain mice; conditions: copper-chelated form unless otherwise stated; for Antitumor activity S180 (ED150): ip, once daily 9 days, effective dose 150, survival; for Antitumor therapeutic index S180: single dose LD50/ED150
From the text: as §2, §3

Melanotic melanoma B16 = test: Antitumor activity in mice, melanotic melanoma B16; assay type: in vivo, BDF1 mice; conditions: copper-chelated form unless otherwise stated; for Antitumor activity B16 (ID50): ip, once daily 9 days, 50% inhibition of tumor growth, day 16, 23040 min; for Antitumor therapeutic index B16: single dose LD50/ID50
From the text: as §2, §3

Structure (SMILES)	Antibacterial potency [1]	ILB activity (minimum inducible concentration) [2] [µg/mL]	minimum inhibitory concentration (MIC) (Mycobacterium 607)	minimum inhibitory concentration (MIC) (Sarcina lutea PCI1001)	minimum inhibitory concentration (MIC) [3]	minimum inhibitory concentration (MIC) [4]	minimum inhibitory concentration (MIC) (Escherichia coli NIHJ)	minimum inhibitory concentration (MIC) [5]	minimum inhibitory concentration (MIC) (Proteus mirabilis A9554)	minimum inhibitory concentration (MIC) [6]	Antitumor activity P388 (ED125) [7] [mg/kg/day]	Antitumor therapeutic index P388 [7]	LD50 single dose [8] [mg/kg/day]	Antitumor activity S180 (ED150) (Sarcoma 180) [mg/kg/day]	Antitumor therapeutic index S180 (Sarcoma 180)	Antitumor activity B16 (ID50) (Melanotic melanoma B16) [mg/kg/day]	Antitumor therapeutic index B16 (Melanotic melanoma B16)
CNCCCNC(=O)CC(N)CCCNC(=O)c1csc(-c2csc(C(O)C(NC(=O)C(NC(=O)CC(O)C(C)NC(=O)C(NC(=O)c3nc(C(CC(N)=O)NCC(N)C(N)=O)nc(N)c3C)C(OC3OC(CO)C(O)C(O)C3OC3OC(CO)C(O)C(OC(N)=O)C3O)c3c[nH]cn3)C(C)O)OC3OC(C)C(N)C(O)C3O)n2)n1 (centres unmarked) [Tallysomycin S11a]	570 μ/mg	0.08	0.1	0.2	1.6	0.025	0.1	0.8	0.2	0.8	0.60	30	18				
Cc1c(N)nc(C(CC(N)=O)NCC(N)C(N)=O)nc1C(=O)NC(C(=O)NC(C)C(O)CC(=O)NC(C(=O)NC(OC1OC(C)C(N)C(O)C1O)C(O)c1nc(-c2nc(C(=O)NCCCN3CCCCC3C)cs2)cs1)C(C)O)C(OC1OC(CO)C(O)C(O)C1OC1OC(CO)C(O)C(OC(N)=O)C1O)c1c[nH]cn1 (centres unmarked) [Tallysomycin S13b]	1,090 μ/mg	0.08	0.2	6.3	> 100	0.8	0.4	6.3	12.5	12.5	0.70	50	35	0.33	106	0.23	152
Cc1c(N)nc([C@H](CC(N)=O)NC[C@@H](N)C(N)=O)nc1C(=O)N[C@H](C(=O)N[C@H](C)[C@@H](O)CC(=O)N[C@@H](C(=O)NC(O[C@@H]1O[C@@H](C)[C@@H](N)[C@@H](O)[C@H]1O)C(O)c1nc(-c2nc(C(=O)NCCCNCCCCN)cs2)cs1)[C@@H](C)O)C(O[C@@H]1O[C@@H](CO)[C@H](O)[C@@H](O)[C@@H]1O[C@H]1O[C@H](CO)[C@@H](O)[C@@H](OC(N)=O)[C@@H]1O)c1cnc[nH]1 (some centres unmarked) [Tallysomycin B, reference compound]	900 μ/mg	0.01	0.2	0.4	6.3	0.006	0.2	0.4	0.2	0.8							
Cc1c(N)nc(C(CC(N)=O)NCC(N)C(N)=O)nc1C(=O)NC(C(=O)NC(C)C(O)CC(=O)NC(C(=O)NC(OC1OC(C)C(N)C(O)C1O)C(O)c1nc(-c2nc(C(=O)NCCCC(N)CC(=O)NCCCN(CCO)CCO)cs2)cs1)C(C)O)C(OC1OC(CO)C(O)C(O)C1OC1OC(CO)C(O)C(OC(N)=O)C1O)c1c[nH]cn1 (centres unmarked) [Tallysomycin S8a]	550 μ/mg	0.005	0.1	0.4	12.5	0.006	0.1	0.2	0.4	0.8	0.78	54	42				
Cc1c(N)nc([C@H](CC(N)=O)NC[C@H](N)C(N)=O)nc1C(=O)N[C@H](C(=O)N[C@H](C)[C@@H](O)CC(=O)N[C@H](C(=O)NC(O[C@@H]1O[C@@H](C)[C@@H](N)[C@@H](O)[C@H]1O)C(O)c1nc(-c2nc(C(=O)NCCCC(N)CC(=O)NCCCNCCCCN)cs2)cs1)[C@@H](C)O)[C@H](O[C@@H]1O[C@@H](CO)[C@@H](O)[C@H](O)[C@@H]1O[C@H]1O[C@H](CO)[C@@H](O)[C@H](OC(N)=O)[C@@H]1O)c1c[nH]cn1 (some centres unmarked) [Tallysomycin A, reference compound]	1,000 μ/mg	0.00125	0.2	0.05	12.5	< 0.003	0.05	0.1	0.4	1.6							
Cc1c(N)nc(C(CC(N)=O)NCC(N)C(N)=O)nc1C(=O)NC(C(=O)NC(C)C(O)CC(=O)NC(C(=O)NC(OC1OC(C)C(N)C(O)C1O)C(O)c1nc(-c2nc(C(=O)NCC(O)CN)cs2)cs1)C(C)O)C(OC1OC(CO)C(O)C(O)C1OC1OC(CO)C(O)C(OC(N)=O)C1O)c1c[nH]cn1 (centres unmarked) [Tallysomycin S4b]	405 μ/mg		0.003	3.1	25	0.006	0.4	0.8	0.4	0.8	> 3.0	< 4	13	0.13	100	0.50	26
Cc1c(N)nc(C(CC(N)=O)NCC(N)C(N)=O)nc1C(=O)NC(C(=O)NC(C)C(O)CC(=O)NC(C(=O)NC(OC1OC(C)C(N)C(O)C1O)C(O)c1nc(-c2nc(C(=O)NCCCC(N)CC(=O)NCCCNC(C)c3ccccc3)cs2)cs1)C(C)O)C(OC1OC(CO)C(O)C(O)C1OC1OC(CO)C(O)C(OC(N)=O)C1O)c1c[nH]cn1 (centres unmarked) [Tallysomycin S14a]	1,300 μ/mg	0.01	0.1	0.8	50	0.1	0.2	0.8	3.1	3.1							
